{"source": "paper PMC8018465", "about": "“Antimicrobial activities of a small molecule compound II-6s against oral streptococci” (Journal of Oral Microbiology, 2021)", "key": {"[1]": {"assay": "In vitro cytotoxicity assay (CCK-8)", "type": "cell-based, human", "details": "human, 5 min exposure", "method": "(§1) The cytotoxicity of II-6s was evaluated by the Cell Counting Kit-8 (CCK-8; Dojindo, Kumamoto, Japan) assay as described by Park et al.. Human gingival epithelial cells (HGE), human oral keratinocytes (HOK) and macrophages RAW264.7 (RAW264.7) were provided by the State Key Laboratory of Oral Diseases, Sichuan University, China. HGE, HOK and RAW264.7 were grown in Dulbecco’s modified Eagle’s medium (DMEM; GibcoTM, Invitrogen, Carlsbad, CA, USA) supplemented with 10% fetal bovine serum (FBS; Invitrogen) and 1% penicillin–streptomycin solution (Invitrogen) and cultured at 37°C in a humidified atmosphere containing 5% CO2. All cells were inoculated into 96 well plates at a density of 1 × 10^4 cells per well for 24 h and then treated with II-6s (0.98 to 500 μg/ml) for 5 min or 24 h. The positive control was treated with CHX (0.98 to 500 μg/ml) at the same time. After treatment, the wells were washed with sterile PBS and fresh medium was added. 10 μl of CCK-8 solution (10 μl) was added to each well and incubated for 1.5 h. The absorbance of each well was measured at the wavelength of 450 nm against a blank which contained medium only. Cell viability was calculated according to the following formula: percent viability = (A450 of treated group − A450 of blank control)/(A450 of negative control − A450 of blank control) × 100%. The experiment was conducted in triplicates and repeated three times."}, "[2]": {"test_system": "Human gingival epithelial cells (HGE)", "assay": "In vitro cytotoxicity assay (CCK-8)", "type": "cell-based", "details": "24 h exposure", "method": "as §1"}, "[3]": {"test_system": "human oral keratinocytes (HOK)", "assay": "In vitro cytotoxicity assay (CCK-8)", "type": "cell-based", "details": "24 h exposure", "method": "as §1"}, "[4]": {"test_system": "methicillin-resistant Staphylococcus aureus (MRSA)", "design": "method as in PMID 30940910", "details": "cited from earlier work"}, "[5]": {"test_system": "methicillin-susceptible S. aureus", "design": "method as in PMID 30940910", "details": "cited from earlier work"}}, "data": [{"smiles": "CC(C)(Cc1ccc2ccccc2c1)NC[C@H](O)CNc1cc(C(F)(F)F)cc(C(F)(F)F)c1", "note": "[II-6s, (S)-1-((3,5-bis(trifluoromethyl)phenyl)amino)-3-((2-methyl-1-(naphthalen-2-yl)propan-2-yl)amino)propan-2-ol]", "values": [{"measurement": "IC50 at 5 min", "setting": "[1]; human gingival epithelial cells (HGE)", "result": "> 125", "unit": "µg/mL"}, {"measurement": "IC50 at 5 min", "setting": "[1]; human oral keratinocytes (HOK)", "result": "> 125", "unit": "µg/mL"}, {"measurement": "IC50 (cytotoxicity), compared with CHX", "setting": "[2]", "result": "higher than that of CHX"}, {"measurement": "IC50 (cytotoxicity), compared with CHX", "setting": "[3]", "result": "higher than that of CHX"}, {"measurement": "antimicrobial activity against MRSA", "setting": "[4]", "result": "decent antimicrobial activity"}, {"measurement": "antimicrobial activity against methicillin-susceptible S. aureus", "setting": "[5]", "result": "decent antimicrobial activity"}]}]}
